# What was measured:
# Type in all cases: biochemical
# ERK2 = ERK2 (Homo sapiens, UniProt P28482); test: ERK2 inhibition assay (spectrophotometric coupled-enzyme assay); conditions: read-out: ERK2 Inhibitory Activity (Ki class D-F)
# Method: The IC50 was evaluated from the rate data as a function of inhibitor concentration. […] The compound numbers correspond to the compound numbers in Table 1.
# CDK-2/Cyclin A = CDK-2/Cyclin A (Homo sapiens, UniProt P24941); test: CDK-2 inhibition assay (coupled enzyme assay)
# Method: To an assay stock buffer solution containing 0.1M HEPES 7.5, 10 mM MgCl2, 1 mM DTT, 25 mM NaCl, 2.5 mM phosphoenolpyruvate, […], […], […], […], and 100 μM peptide ([…], American Peptide, Sunnyvale, Calif.) was added a DMSO solution of a compound of the present invention to a final concentration of 30 μM.
# The Ki values were determined from the rate data as a function of inhibitor concentration.
# GSK-3β (AA 1–420) = molecular target: T1, GSK-3β (AA 1–420) (Homo sapiens, UniProt P49841); test: GSK-3 inhibition assay (coupled enzyme system); conditions: read-out: GSK3 Inhibitory Activity (Ki class)
# T1 construct: GSK-3β (AA 1–420)
# Method: Final substrate concentrations in the assay were 20 μM ATP (Sigma Chemicals, St Louis, Mo.) and 300 μM peptide (HSSPHQS(PO3H2)EDEEE, American Peptide, Sunnyvale, Calif.). Reactions were carried out at 30° C. and 20 nM GSK-3β. Final concentrations of the components of the coupled enzyme system were 2.5 mM phosphoenolpyruvate, 300 μM NADH, 30 μg/ml pyruvate kinase and 10 μg/ml lactate dehydrogenase.
# An assay stock buffer solution was prepared containing all of the reagents listed above with the exception of ATP and the test compound of interest. The assay stock buffer'solution (175 μl) was incubated in a 96 well plate with 5 μl of the test compound of interest at final concentrations spanning 0.002 μM to 30 μM at 30° C. for 10 min. […] The reaction was initiated by the addition of 20 μl of ATP (final concentration 20 μM). Rates of reaction were obtained using a Molecular Devices Spectramax plate reader (Sunnyvale, Calif.) over 10 min at 30° C. The Ki values were determined from the rate data as a function of inhibitor concentration.
# The compound numbers correspond to the compound numbers in Table 1.
# T1 sequence (P49841 whole entry, species assumed, the tested form may be a part): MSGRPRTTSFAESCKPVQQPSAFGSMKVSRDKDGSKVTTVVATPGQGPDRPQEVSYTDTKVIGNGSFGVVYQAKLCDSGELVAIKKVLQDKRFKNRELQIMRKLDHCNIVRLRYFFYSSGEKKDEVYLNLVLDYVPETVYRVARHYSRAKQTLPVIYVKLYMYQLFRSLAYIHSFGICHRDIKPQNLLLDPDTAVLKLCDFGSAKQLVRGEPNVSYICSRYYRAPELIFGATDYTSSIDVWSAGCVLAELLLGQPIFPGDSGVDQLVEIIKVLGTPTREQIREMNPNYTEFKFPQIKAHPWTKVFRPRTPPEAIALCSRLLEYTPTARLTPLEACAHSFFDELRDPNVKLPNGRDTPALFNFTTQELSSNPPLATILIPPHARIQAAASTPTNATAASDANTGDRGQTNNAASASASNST
# ERK2, sequence (P28482 whole entry): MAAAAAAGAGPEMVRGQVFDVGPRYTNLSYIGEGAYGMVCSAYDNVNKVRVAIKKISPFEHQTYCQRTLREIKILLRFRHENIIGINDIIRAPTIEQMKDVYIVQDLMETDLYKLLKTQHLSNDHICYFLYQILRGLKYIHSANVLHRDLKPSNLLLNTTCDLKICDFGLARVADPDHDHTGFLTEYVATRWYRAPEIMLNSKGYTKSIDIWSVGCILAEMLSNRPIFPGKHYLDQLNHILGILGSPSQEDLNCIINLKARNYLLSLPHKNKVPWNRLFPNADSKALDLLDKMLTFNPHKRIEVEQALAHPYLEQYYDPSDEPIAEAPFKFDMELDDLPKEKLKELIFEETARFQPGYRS
Ki (ERK2) [nM],Ki (CDK-2/Cyclin A) [nM],Ki (GSK-3β (AA 1–420)) [nM],SMILES
,100 to 1000,100 to 1000,"Cc1cnc(Nc2ccccc2)nc1-c1c[nH]c(C(=O)NC(CO)c2cccc(C(F)(F)F)c2)c1 (centres unmarked) [III-a-146, 4-(5-Methyl-2-phenylamino-pyrimidin-4-yl)-1H-pyrrole-2-carboxylic acid [2-hydroxy-1-(3-trifluoromethyl-phenyl)-ethyl]-amide]"
< 100,,> 1000,"CCNc1ncc(C)c(-c2c[nH]c(C(=O)NC(CO)c3cccc(C(F)(F)F)c3)c2)n1 (centres unmarked) [III-a-198, 4-(2-Ethylamino-5-methyl-pyrimidin-4-yl)-1H-pyrrole-2-carboxylic acid [2-hydroxy-1-(3-trifluoromethyl-phenyl)-ethyl]-amide]"
< 100,,< 100,"Cc1cnc(Nc2cccc(F)c2)nc1-c1c[nH]c(C(=O)NC(CO)c2cccc(C(F)(F)F)c2)c1 (centres unmarked) [III-a-199, 4-[2-(3-Fluoro-phenylamino)-5-methyl-pyrimidin-4-yl]-1H-pyrrole-2-carboxylic acid [2-hydroxy-1-(3-trifluoromethyl-phenyl)-ethyl]-amide]"
< 100,,> 1000,"Cc1cnc(Nc2ccccc2Cl)nc1-c1c[nH]c(C(=O)NC(CO)c2cccc(C(F)(F)F)c2)c1 (centres unmarked) [III-a-200, 4-[2-(2-Chloro-phenylamino)-5-methyl-pyrimidin-4-yl]-1H-pyrrole-2-carboxylic acid [2-hydroxy-1-(3-trifluoromethyl-phenyl)-ethyl]-amide]"
< 100,,100 to 1000,"Cc1cnc(NC(CO)c2ccccc2)nc1-c1c[nH]c(C(=O)NC(CO)c2cccc(C(F)(F)F)c2)c1 (centres unmarked) [III-a-201, 4-[2-(2-Hydroxy-1-phenyl-ethylamino)-5-methyl-pyrimidin-4-yl]-1H-pyrrole-2-carboxylic acid [2-hydroxy-1-(3-trifluoromethyl-phenyl)-ethyl)-amide]"
< 100,,< 100,Cc1cccc(C(CO)NC(=O)c2cc(-c3nc(Nc4cccc(N(C)C)c4)ncc3C)c[nH]2)c1 (centres unmarked) [III-a-208]
< 100,,< 100,"Cc1cccc(C(CO)NC(=O)c2cc(-c3nc(Nc4ccccc4Cl)ncc3C)c[nH]2)c1 (centres unmarked) [III-a-209, 4-[2-(2-Chloro-phenylamino)-5-methyl-pyrimidin-4-yl]-1H-pyrrole-2-carboxylic acid (2-hydroxy-1-m-tolyl-ethyl)-amide]"
< 100,,< 100,"Cc1cccc(C(CO)NC(=O)c2cc(-c3nc(Nc4cccc(F)c4)ncc3C)c[nH]2)c1 (centres unmarked) [III-a-212, 4-[2-(3-Fluoro-phenylamino)-5-methyl-pyrimidin-4-yl]-1H-pyrrole-2-carboxylic acid (2-hydroxy-1-m-tolyl-ethyl)-amide]"
< 100,,< 100,"Cc1cccc(C(CO)NC(=O)c2cc(-c3nc(Nc4ccccc4C)ncc3C)c[nH]2)c1 (centres unmarked) [III-a-223, 4-(5-Methyl-2-o-tolylamino-pyrimidin-4-yl)-1H-pyrrole-2-carboxylic acid (2-hydroxy-1-m-tolyl-ethyl)-amide]"

# The remaining lines, values behind:
SMILES,Ki (ERK2) [nM],Ki (CDK-2/Cyclin A) [nM],Ki (GSK-3β (AA 1–420)) [nM]
"Cc1cnc(NC2CCC(O)CC2)nc1-c1c[nH]c(C(=O)NC(CO)c2ccccc2)c1 (centres unmarked) [III-a-142, 4-[2-(4-Hydroxy-cyclohexylamino)-5-methyl-pyrimidin-4-yl]-1H-pyrrole-2-carboxylic acid (2-hydroxy-1-phenyl-ethyl)-amide]",< 100,< 100,< 100
"COc1ccccc1Nc1ncc(C)c(-c2c[nH]c(C(=O)NC(CO)c3ccccc3)c2)n1 (centres unmarked) [III-a-156, 4-[2-(2-Methoxy-phenylamino)-5-methyl-pyrimidin-4-yl]-1H-pyrrole-2-carboxylic acid (2-hydroxy-1-phenyl-ethyl)-amide]",,1000 to 20000,100 to 1000
"Cc1cnc(NC(CO)C(C)C)nc1-c1c[nH]c(C(=O)NC(CO)c2ccccc2)c1 (centres unmarked) [III-a-196, 4-[2-(1-Hydroxymethyl-2-methyl-propylamino)-5-methyl-pyrimidin-4-yl]-1H-pyrrole-2-carboxylic acid (2-hydroxy-1-phenyl-ethyl)-amide]",< 100,,> 1000
"COc1ccccc1C(CO)NC(=O)c1cc(-c2nc(NC3CC3)ncc2C)c[nH]1 (centres unmarked) [III-a-203, 4-(2-Cyclopropylamino-5-methyl-pyrimidin-4-yl)-1H-pyrrole-2-carboxylic acid [2-hydroxy-1-(2-methoxy-phenyl)-ethyl]-amide]",< 100,,100 to 1000
"CONc1ncc(C)c(-c2c[nH]c(C(=O)NC(CO)c3ccccc3)c2)n1 (centres unmarked) [III-a-206, 4-(2-Methoxyamino-5-methyl-pyrimidin-4-yl)-1H-pyrrole-2-carboxylic acid (2-hydroxy-1-phenyl-ethyl)-amide]",< 100,,< 100
"Cc1cnc(NOC(C)C)nc1-c1c[nH]c(C(=O)NC(CO)c2ccccc2)c1 (centres unmarked) [III-a-207, 4-(2-Isopropoxyamino-5-methyl-pyrimidin-4-yl)-1H-pyrrole-2-carboxylic acid (2-hydroxy-1-phenyl-ethyl)-amide]",< 100,,100 to 1000
"Cc1cccc(C(CO)NC(=O)c2cc(-c3nc(NC(CO)c4ccccc4)ncc3C)c[nH]2)c1 (centres unmarked) [III-a-210, 4-[2-(2-Hydroxy-1-phenyl-ethylamino)-5-methyl-pyrimidin-4-yl]-1H-pyrrole-2-carboxylic acid (2-hydroxy-1-m-tolyl-ethyl)-amide]",< 100,,> 1000
"Cc1cccc(C(CO)NC(=O)c2cc(-c3nc(Nc4cccc(C)c4C)ncc3C)c[nH]2)c1 (centres unmarked) [III-a-211, 4-[2-(2,3-Dimethyl-phenylamino)-5-methyl-pyrimidin-4-yl]-1H-pyrrole-2-carboxylic acid (2-hydroxy-1-m-tolyl-ethyl)-amide]",< 100,,100 to 1000
"CC(=O)Nc1ncc(C)c(-c2c[nH]c(C(=O)NC(CO)c3ccccc3)c2)n1 (centres unmarked) [III-a-213, 4-(2-Acetylamino-5-methyl-pyrimidin-4-yl)-1H-pyrrole-2-carboxylic acid (2-hydroxy-1-phenyl-ethyl)-amide]",< 100,,100 to 1000
"Cc1cnc(Nc2cccnc2)nc1-c1c[nH]c(C(=O)NC(CO)c2ccccc2)c1 (centres unmarked) [III-a-215, 4-[5-Methyl-2-(pyridin-3-ylamino)-pyrimidin-4-yl]-1H-pyrrole-2-carboxylic acid (2-hydroxy-1-phenyl-ethyl)-amide]",< 100,,< 100
"Cc1cnc(NCC2CCCO2)nc1-c1c[nH]c(C(=O)NC(CO)c2ccccc2)c1 (centres unmarked) [III-a-216, 4-{5-Methyl-2-[(tetrahydro-furan-2-ylmethyl)-amino]-pyrimidin-4-yl}-1H-pyrrole-2-carboxylic acid (2-hydroxy-1-phenyl-ethyl)-amide]",< 100,,< 100
"Cc1cnc(NCC2CCCO2)nc1-c1c[nH]c(C(=O)NC(CO)c2ccccc2)c1 (centres unmarked) [III-a-217, 4-{5-Methyl-2-((tetrahydro-furan-2-ylmethyl)-amino]-pyrimidin-4-yl}-1H-pyrrole-2-carboxylic acid (2-hydroxy-1-phenyl-ethyl)-amide]",< 100,,< 100
"Cc1cccc(C(CO)NC(=O)c2cc(-c3nc(NC(C)CO)ncc3C)c[nH]2)c1 (centres unmarked) [III-a-222, 4-[2-(2-Hydroxy-1-methyl-ethylamino)-5-methyl-pyrimidin-4-yl]-1H-pyrrole-2-carboxylic acid (2-hydroxy-1-m-tolyl-ethyl)-amide]",< 100,,100 to 1000
"Cc1cnc(NOCCO)nc1-c1c[nH]c(C(=O)NC(CO)c2ccccc2)c1 (centres unmarked) [III-a-225, 4-[2-(2-Hydroxy-ethoxyamino)-5-methyl-pyrimidin-4-yl]-1H-pyrrole-2-carboxylic acid (2-hydroxy-1-phenyl-ethyl)-amide]",< 100,,< 100
"Cc1cnc(NC(CO)c2ccc(F)c(Cl)c2)nc1-c1c[nH]c(C(=O)NC(CO)c2ccccc2)c1 (centres unmarked) [III-a-230, 4-{2-[1-(3-Chloro-4-fluoro-phenyl)-2-hydroxy-ethylamino]-5-methyl-pyrimidin-4-yl}-1H-pyrrole-2-carboxylic acid (2-hydroxy-1-phenyl-ethyl)-amide]",< 100,,100 to 1000
"CCC(CO)Nc1ncc(C)c(-c2c[nH]c(C(=O)NC(CO)c3cccc(Cl)c3)c2)n1 (centres unmarked) [III-a-232, 4-[2-(1-Hydroxymethyl-propylamino)-5-methyl-pyrimidin-4-yl]-1H-pyrrole-2-carboxylic acid (1-(3-chloro-phenyl)-2-hydroxy-ethyl]-amide]",< 100,,100 to 1000
"Cc1cnc(NC(CO)CO)nc1-c1c[nH]c(C(=O)NC(CO)c2cccc(Cl)c2)c1 (centres unmarked) [III-a-233, 4-[2-(2-Hydroxy-1-hydroxymethyl-ethylamino)-5-methyl-pyrimidin-4-yl]-1H-pyrrole-2-carboxylic acid [1-(3-chloro-phenyl)-2-hydroxy-ethyl]-amide]",< 100,,> 1000
